Measurements taken from US20060140957A1, “Eph/ephrin mediated modulation of cell adhesion and tumour cell metastasis” (priority 2003, published 2006).

Tests used:
EphA3/HEK 293 cells [1] = assay: Cleavage and internalisation of Alexa-labelled protein from protein A Dynabeads; format: cell-based, human; details: 5 mM, 4 h prior to bead addition
Procedure: (§1) FIG. 6. Eph/ephrin mediated cell-cell repulsion, but not adhesion leads to ephrinA5 cleavage by a metalloprotease. • (A) Alexa ephrinA5-Fc (I, III) or Alexa EphA1 Fc (II) control proteins, conjugated onto protein A-coated Dynabeads were added to cultures of EphA3/HEK 293 cells (I, II) or LK63 cells (III). Cleavage and internalisation of the fluorescent proteins was monitored by confocal microscopy. Selected images of confocal time-lapse experiments (1 frame/min) are shown. Alexa 546 fluorescence is represented in white and outlines cells in panels I, while the cells in panels II, III appear dark-grey or black. • (B) Prior to stimulation (30 min) with Alexa ephrinA5-Fc coated beads (I, II) or with Alexa Fc control beads (III), parallel cultures of EphA3/293 cells were treated for 4 h with 5 mM 1′,10′-O-Phenanthroline (II) or left untreated (I, III). […] Using an EphA3-Fc construct, ephrin-A5 was immuno precipitated from lysates of EphA3/HEK 293 cells or LK63 cells, which had been treated for indicated times with 7.5 ì g/ml of pre-clustered (+X-lnk) or non-clustered (−X-lnk) ephrin-A5 Fc, and analysed for ephrin cleavage by Western blot with anti-ephrinA5 antibody. […]
Eph/ephrin stimulation was analysed in-situ by time-lapse confocal microscopy and immunocytochemistry as described (Lawrenson et al., 2002). […]

EphA3/HEK 293 cells [2] = assay: Biochemical demonstration of ephrin cleavage (Western blot); format: cell-based, human; details: cells stimulated with clustered ephrin-A5 Fc
Procedure: as §1, with “antibody. To assess cleavage by metalloproteases, parallel cultures were treated with 1′,10′-O-phenanthroline (+OPN) or left untreated.” for “antibody.”

EphA3/HEK 293 cells [3] = assay: Phosphatase inhibition, anti-EphA3 IP / anti-phosphotyrosine western blot; format: cell-based, human; details: increasing amounts
Procedure: (§2) FIG. 8. Phosphatase inhibition triggers EphA3 phosphorylation in LK63 cells • (A) Anti-EphA3 immunoprecipitates from TritonX100 lysates of EphA3/HEK 293, EphA3/AO2 melanoma cells and LK63 leukaemia cells were treated with either crosslinked ephrin-A5 or increasing concentrations of sodium pervanadate as indicated, and analysed by anti-phosphotyrosine western blot. • (B) Anti-EphA3 immunoprecipitates from TritonX100 lysates of vanadate or hydrogen peroxide-treated EphA3/HEK 293 (left panel) and EphA3/AO2 melanoma cells(right panel) were analysed as described in (A).

[4] = system: EphA3/A02 malignant melanoma cells; assay: as above; format: cell-based; details: increasing amounts
Procedure: as §2

[5] = system: HEK293 cells expressing 3YF EphA3GFP; assay: FLIM/FRET of EphA3 phosphorylation after phosphatase inhibition; format: cell-based, human; details: 30 min, high concentrations
Procedure: (§3) FIG. 7. Pervanadate-induced Eph receptor phosphorylation HEK293 cells, expressing w/t EphA3GFP (A) or 3YF EphA3GFP (B) were incubated with pervanadate (30 min) at indicated concentrations. Fixed cells were examined for FRET as described above. Left, GFP-fluorescence; right, GFP fluorescence lifetime phase maps. Tabulated colour codes indicate GFP lifetimes in ns.
(§4) GFP EphA3 (w/t or mutant) expressing cells were stimulated, fixed, permeabilised and stained with Cy3-conjugated anti phosphotyrosine monoclonal antibody PY72 prior to mounting onto glass slides using Mowiol (Calbiochem). Fluorescence lifetime imaging microscopy (FLIM) sequences were obtained at 80 MHz with an Olympus IX70 microscope (100/1.4 NA oil immersion lens) and analysed as described (Reynolds, Tischer et al. 2003). A 476-nm argon laser line and narrow-band emission filter (HQ510/20; Chroma) were used for GFP, a 100-W mercury arc lamp with high Q Cy3 filter set (excite, HQ545/30; dicroic, Q580LP; emitter, HQ610/75) for Cy3 and Alexa 546. GFP Fluorescence was detected with a dichroic beamsplitter (Q495 LP; Chroma Technology, Brattleboro, Vt.) and narrow-band emission filter. Stimulated FRET was measured in live 293 cells between transiently expressed ephrin-A2GFP and Alexa546 EphA3-Fc.

[6] = system: HEK293 cells expressing w/t EphA3GFP; assay: as above; format: cell-based, human; details: 30 min, increasing concentrations
Procedure: as §3, §4

LK63 leukaemia cells = assay: Phosphatase inhibition, anti-EphA3 IP / anti-phosphotyrosine western blot; format: cell-based, human; details: highest concentration tested (1 mM)
Procedure: as §2

LK63 cells = assay: Cell morphology on ephrinA5-Fc coated glass coverslips (rhodamin-phalloidin); format: cell-based, human; details: 4 h
Procedure: FIG. 1. Surface-bound ephrinA5 causes either cell repulsion or cell adhesion of EphA3-positive tumour cells. • (A) EphA3-positive LK63 human pre-B leukemia cells and LiBr melanoma cells were plated onto glass coverslips coated with ephrinA5-Fc (ephrin, 10 μg/ml) or fibronectin (FN, 10 μg/ml). After 4h the cytoskeleton of adherent, fixed cells was stained with rhodamin-phalloidin. Pictures of representative fluorescence images are shown; the second column represents magnified sections of the first. Scale bar: 20 ì m. • (B) LK63 adhesion and LiBr de-adhesion to surface-bound ephrinA5 are dose-dependent. […] After 4-hour incubation, adherent cells, withstanding rigorous washing, were quantitated by XTT assay (A492 absorbance). Cell attachment is expressed as a percentage (mean, S.E. from three independent assays) relative to wells containing most adherent cells; ( ), LK63 and ( ), LiBr cells and ( ), LK63, ( ), LiBr cells with ephrin inhibition (+inh.). • (C) LiBr melanoma cells in matrigel-coated Basement Membrane migration chambers (Becton Dickinson, 5×10^4/well) were exposed to chemoattractant, 3T3 conditioned media (cond. media) or 1.5 ì g/ml pre-clustered ephrin-A5 Fc in the bottom chamber, or with 1.5 ì g/mil pre-clustered ephrin-A5 Fc placed together with cells into the top chamber. […]

Row | Compound | effect on ephrin cleavage and internalisation from Alexa ephrin-A5-Fc beads (EphA3/HEK 293 cells [1]) | effect on ephrin cleavage (anti-ephrinA5 Western blot) (EphA3/HEK 293 cells [2]) | EphA3 phosphorylation (EphA3/HEK 293 cells [3]) | EphA3 phosphorylation [4] | GFP fluorescent lifetime (receptor phosphorylation) [5] | GFP fluorescent lifetime (receptor phosphorylation) [6] | EphA3 phosphorylation compared with EphA3/HEK 293 and EphA3/A02 cells (LK63 leukaemia cells) | LK63 morphology on ephrin-coated coverslips under phosphatase inhibition (LK63 cells)
1 | c1cnc2c(c1)ccc1cccnc12 [1′,10′-O-Phenanthroline] | completely abrogated ephrin cleavage and internalisation | significantly-reduced ephrin cleavage | – | – | – | – | – | –
2 | OO [H2O2, hydrogen peroxide] | – | – | dose dependent increase in EphA3 phosphorylation | dose dependent increase in EphA3 phosphorylation | – | – | – | –
3 | sodium-pervanadate | – | – | dose dependent increase in EphA3 phosphorylation | dose dependent increase in EphA3 phosphorylation | retained their GFP lifetime | dramatic dose-dependent decrease in the GFP fluorescent lifetime | significantly lower | lose their characteristic extensions and appear rounded
